Measured values: patent publication US8436039B2, “Inhibitors of the ATB(0,+) transporter and uses thereof” (Georgia Health Sciences University Research Institute, Inc., priority 2008, dated 2013)

Experiments:
mouse ATB^0,+ [1] = molecular target: T1, mouse ATB^0,+ (Mus musculus, UniProt Q9JMA9); test: Inhibition of ATB^0,+-mediated glycine uptake in HRPE cells expressing cloned mouse ATB^0,+; format: cell-based; details: for inhibition of ATB^0,+-specific glycine uptake: glycine 10 μM, inhibitor 1 mM, 30 min, NaCl, HRPE cells
T1 sequence (Q9JMA9 1-638): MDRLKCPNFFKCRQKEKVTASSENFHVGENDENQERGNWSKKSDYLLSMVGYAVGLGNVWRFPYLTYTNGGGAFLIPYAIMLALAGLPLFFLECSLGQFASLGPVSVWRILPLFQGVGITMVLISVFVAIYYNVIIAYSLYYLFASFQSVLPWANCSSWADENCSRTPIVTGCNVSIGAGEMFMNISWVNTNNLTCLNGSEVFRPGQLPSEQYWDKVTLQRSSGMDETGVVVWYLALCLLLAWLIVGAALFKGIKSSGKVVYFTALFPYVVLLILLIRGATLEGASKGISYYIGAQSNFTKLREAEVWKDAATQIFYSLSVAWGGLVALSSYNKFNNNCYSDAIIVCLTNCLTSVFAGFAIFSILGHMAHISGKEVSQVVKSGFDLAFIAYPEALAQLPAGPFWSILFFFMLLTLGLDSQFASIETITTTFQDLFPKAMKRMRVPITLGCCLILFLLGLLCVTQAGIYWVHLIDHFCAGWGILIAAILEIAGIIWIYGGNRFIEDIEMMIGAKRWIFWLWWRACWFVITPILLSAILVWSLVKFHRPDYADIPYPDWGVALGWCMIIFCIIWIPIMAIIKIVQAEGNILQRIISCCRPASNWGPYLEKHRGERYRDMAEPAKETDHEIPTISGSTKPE

mouse ATB^0,+ [2] = molecular target: T1, mouse ATB^0,+; test: Substrate-induced inward currents in X. laevis oocytes expressing mouse ATB^0,+ (two-microelectrode voltage clamp); format: cell-based; details: for inward currents induced in ATB^0,+-expressing oocytes: 2.5 mM; for inward currents induced in ATB^0,+-expressing oocytes / Michaelis constant (K0.5) of substrate-induced currents: voltage clamp, NaCl; for Michaelis constant (K0.5) of substrate-induced currents: saturation kinetics
Description: Capped cRNA from the cloned mouse or human ATB^0,+ cDNA was synthesized using the mMESSAGE mMACHTNE kit (Ambion, Austin, Tex., U.S.A.). Mature oocytes (stage IV or V) from X. laevis were injected with 50 ng of cRNA. Uninjected oocytes served as controls. The oocytes were used for electrophysiological studies 3-6 days after cRNA injection. Electrophysiological studies were performed by the two-microelectrode voltage-clamp method (Nakanishi et al., 2001, J. Physiol. 532, 297-304). Oocytes were superfused with an NaCl-containing buffer (100 mM NaCl, 2 mM KCl, 1 mM MgCl2, 1 mM CaCl2, 3 mM Hepes, 3 mM Mes and 3 mM Tris, pH 7.5), followed by the same buffer containing tryptophan derivatives. The membrane potential was clamped at −50 mV. The differences between the steady-state currents measured in the presence and absence of substrates were considered as the substrate-induced currents. In the analysis of the saturation kinetics of substrate-induced currents, the kinetic parameter K0.5 (i.e. substrate concentration necessary for induction of half-maximal current) was calculated by fitting the values of the substrate-induced currents to the Michaelis-Menten equation. The Na^+ and Cl^− activation kinetics of substrate-induced currents were analysed by measuring the substrate-specific currents in the presence of increasing concentrations of Na^+ (concentration of Cl^− kept constant at 100 mM) or in the presence of increasing concentrations of Cl^− (concentration of Na^+ kept constant at 100 mM). In these experiments, the composition of the superfusion buffer was modified to contain 2 mM potassium gluconate, 1 mM MgSO4 and 1 mM calcium gluconate in place of KCl, MgCl2 and CaCl2 respectively. The data from these experiments were analysed by the Hill equation to determine the Hill coefficient (h; number of Na^+ and Cl^− ions involved in the activation process). The kinetic parameters were determined by using the commercially available computer program Sigma Plot, version 6.0 (SPSS, Chicago, Ill., U.S.A.). Uninjected oocytes were used to determine the currents induced by tryptophan derivatives due to entry via transporters that may be constitutively expressed in the oocytes. At a concentration of 2.5 mM, the currents induced by these compounds were in the range of 0-3 nA in uninjected oocytes. These currents were less than 2% of the corresponding currents induced in ATB^0,+ cRNA-injected oocytes. Therefore the endogenous currents associated with the constitutively expressed transporters were not considered in the analysis of kinetic parameters of ATB^0,+ transport activity.
The above studies with the mammalian cell expression system have focused on the interaction of 1-methyltryptophan and other tryptophan derivatives with ATB^0,+ by examining the effects of these compounds on the transporter-mediated glycine uptake. These studies have shown convincingly that 1-methyltryptophan interacts with ATB^0,+, with the L-isomer having much higher affinity for the transporter than the D-isomer. However, these studies have not shown whether or not 1-methyltryptophan is actually a transportable substrate for ATB^0,+. It is possible that 1-methyltryptophan inhibits ATB^0,+-mediated glycine uptake simply by blocking the interaction of glycine with the substrate-binding site of the transporter, rather than by actually competing with glycine for the transport process. […] We wanted to know whether 1-methyltryptophan can actually be transported by ATB^0,+. For this, we used the X. laevis oocyte expression system. Since the transport process mediated by ATB^0,+ is electrogenic, exposure of ATB^0,+-expressing oocytes to transportable substrates will induce an inward current in an Na^+- and Cl^−-dependent manner. Exposure of the same oocytes to blockers will interfere with currents induced by transportable substrates, but will not induce currents by themselves. […]

[3] = 1 mM substrate, Cl^- fixed at 100 mM
[4] = 1 mM substrate, Na^+ fixed at 100 mM

## CC(N)(Cc1c[nH]c2ccccc12)C(=O)O (racemic) [α-methyl-DL-tryptophan]
Mouse ATB^0,+ [1]
  inhibition of ATB^0,+-specific glycine uptake: inhibited
Mouse ATB^0,+ [2]
  inward currents induced in ATB^0,+-expressing oocytes: failed to induce currents

## Cn1cc(C[C@@H](N)C(=O)O)c2ccccc21 [1-methyl-D-tryptophan]
Mouse ATB^0,+ [1]
  IC50: 780 ± 225 µM
Mouse ATB^0,+ [2]
  Michaelis constant (K0.5) of substrate-induced currents: 462 ± 78 µM

## Cn1cc(C[C@H](N)C(=O)O)c2ccccc21 [1-methyl-L-tryptophan]
Mouse ATB^0,+ [1]
  IC50: 23 ± 5 µM
Mouse ATB^0,+ [1]; 1-methyl-L-tryptophan versus 1-methyl-D-tryptophan
  potency of L-isomer relative to D-isomer as inhibitor of ATB^0,+-mediated glycine uptake: at least 35 fold
Mouse ATB^0,+ [2]; [3]
  Hill coefficient (h), Na^+-activation kinetics of induced currents: 1.9±0.2
  Michaelis constant (K0.5) for Na^+: 27 ± 2 mM
Mouse ATB^0,+ [2]; [4]
  Hill coefficient, Cl^- -activation kinetics of induced currents: 1.2±0.2
  Michaelis constant for Cl^-: 2.1 ± 0.3 mM
Mouse ATB^0,+ [2]
  Michaelis constant (K0.5) of substrate-induced currents: 93 ± 16 µM

## Cn1cc(CC(N)C(=O)O)c2ccccc21 (racemic) [1-methyl-DL-tryptophan]
Mouse ATB^0,+ [1]
  inhibition of ATB^0,+-specific glycine uptake: inhibited
Mouse ATB^0,+ [2]
  inward currents induced in ATB^0,+-expressing oocytes: induced marked currents
